Legend:
adrenergic β2 receptors = target: T1, adrenergic β2 receptors (Cavia porcellus, UniProt Q8K4Z4); assay: β2 adrenergic activity (functional), relaxation of spontaneous tone of isolated trachea; design: species or system Dunkin Hartley Guinea pigs
T1 construct: from tissue; host or cells: isolated trachea of Dunkin Hartley guinea pigs

[1] = Stability in aqueous buffered solutions; format: physicochemical
Description: Stability in Aqueous Buffered Solutions
Solution Preparations: For each test compound, the following solutions are prepared. • Solution A is prepared from ˜30 mg of the test compound in 150 mL of 0.005 M citrate buffer, pH 5.0 (˜0.2 mg/mL). • Solution B is prepared as follows: approximately 30 mL aliquot of Solution A is transferred to a separated container and the pH of the solution is adjusted to pH 3.0 with 1 N HCl (˜0.2 mL). • Solution C is prepared as follows: approximately 30 mL aliquot of Solution A is transferred to a separated container and the pH of the solution is adjusted to pH ˜8.0 with 1 N NaOH (˜0.2 mL). • Note: Because the volume of 1 N HCl or 1 N NaOH used for adjusting pH was negligible, the concentration of test compound in Solutions A, B and C were the same.
Storage SCHEME • As soon as the above solutions were prepared, aliquots of each solution were transferred into 11 vials, of which 9 vials are stored at −20° C., and one each is stored at 30° C. and 40° C., respectively. • At each interval listed below, two vials are removed from −20° C. storage, and stored at 30° C. and 40° C., respectively. • The corresponding weeks under the storage condition (30° C. or 40° C.) are shown in the table below.
On Week 12, the last vial stored at −20° C. is removed and warmed up to the room temperature, which is the Day 0 Solution.
Sample Analysis: On Week 12, all solutions are assayed by an HPLC method using the Day 0 Solution at pH 5 as a standard solution. The test compounds were assayed by HPLC with UV detection (refer to Table 1 for method conditions).

[2] = target: T2, human recombinant β2 receptors expressed in CHO cells (Homo sapiens, UniProt P07550); assay: Intrinsic activity assessment (β2), cAMP production; format: cell-based; settings: % response relative to a procaterol-induced cAMP increase
T2 construct: expressed in transfected cells; host or cells: CHO cells
T2 sequence (P07550 whole entry): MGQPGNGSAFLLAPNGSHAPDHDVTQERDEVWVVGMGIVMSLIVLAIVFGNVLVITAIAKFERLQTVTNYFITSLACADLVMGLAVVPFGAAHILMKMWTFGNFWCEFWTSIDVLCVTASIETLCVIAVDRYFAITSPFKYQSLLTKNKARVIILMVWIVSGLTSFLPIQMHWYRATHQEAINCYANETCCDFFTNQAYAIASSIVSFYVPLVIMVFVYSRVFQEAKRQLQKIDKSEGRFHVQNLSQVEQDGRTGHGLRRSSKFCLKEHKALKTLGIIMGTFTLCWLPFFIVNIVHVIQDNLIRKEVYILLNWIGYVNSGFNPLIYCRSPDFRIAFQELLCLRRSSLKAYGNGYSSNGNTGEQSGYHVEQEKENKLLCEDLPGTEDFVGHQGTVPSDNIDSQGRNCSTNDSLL
Description: Intrinsic Activity Assessment (β2)
The intrinsic activity of a test compound is assessed by evaluating its ability to increase cAMP production from human recombinant β2 receptors expressed in CHO cells. Data are expressed as % response relative to a procaterol-induced cAMP increase.

adrenergic β1 receptors = target: T3, adrenergic β1 receptors (Cavia porcellus, UniProt H0W3H1); assay: β1 adrenergic activity (functional), positive chronotropic effect in isolated right atria; design: species or system Dunkin Hartley Guinea pigs; settings: β1 functional assay, at a concentration of 30 μM
T3 construct: from tissue; host or cells: isolated right atria of Dunkin Hartley guinea pigs
T3 sequence (H0W3H1 1-470): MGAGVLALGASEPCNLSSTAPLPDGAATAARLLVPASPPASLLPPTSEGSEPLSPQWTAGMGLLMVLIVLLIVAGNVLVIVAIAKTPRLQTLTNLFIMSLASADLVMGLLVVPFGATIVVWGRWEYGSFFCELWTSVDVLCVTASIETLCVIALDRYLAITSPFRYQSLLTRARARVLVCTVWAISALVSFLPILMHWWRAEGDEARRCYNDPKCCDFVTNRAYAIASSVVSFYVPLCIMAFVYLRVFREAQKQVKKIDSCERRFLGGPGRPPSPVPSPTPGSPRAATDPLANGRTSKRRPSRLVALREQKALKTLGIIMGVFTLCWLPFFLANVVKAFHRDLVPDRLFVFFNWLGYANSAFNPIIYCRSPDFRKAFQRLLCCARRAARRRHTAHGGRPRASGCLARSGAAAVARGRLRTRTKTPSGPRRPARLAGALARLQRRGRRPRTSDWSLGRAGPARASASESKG

[3] = target: T4, human recombinant β2 receptors (Homo sapiens, UniProt P07550); assay: β2 radioligand binding assay
T4 construct: expressed in transfected cells; host or cells: CHO cells
T4 sequence (P07550 whole entry): as the sequence (P07550 whole entry) above
Description: (§1) βi and β2 Radioligand Binding Assays
(§2) The Ki is calculated from the IC50 and the known KD of the radioligand (Cheng and Prusoff's equation).

[4] = target: T5, human recombinant β1 receptors (Homo sapiens, UniProt P08588); assay: β1 radioligand binding assay; settings: β1 receptor
T5 construct: expressed in transfected cells; host or cells: CHO cells
T5 sequence (P08588 whole entry): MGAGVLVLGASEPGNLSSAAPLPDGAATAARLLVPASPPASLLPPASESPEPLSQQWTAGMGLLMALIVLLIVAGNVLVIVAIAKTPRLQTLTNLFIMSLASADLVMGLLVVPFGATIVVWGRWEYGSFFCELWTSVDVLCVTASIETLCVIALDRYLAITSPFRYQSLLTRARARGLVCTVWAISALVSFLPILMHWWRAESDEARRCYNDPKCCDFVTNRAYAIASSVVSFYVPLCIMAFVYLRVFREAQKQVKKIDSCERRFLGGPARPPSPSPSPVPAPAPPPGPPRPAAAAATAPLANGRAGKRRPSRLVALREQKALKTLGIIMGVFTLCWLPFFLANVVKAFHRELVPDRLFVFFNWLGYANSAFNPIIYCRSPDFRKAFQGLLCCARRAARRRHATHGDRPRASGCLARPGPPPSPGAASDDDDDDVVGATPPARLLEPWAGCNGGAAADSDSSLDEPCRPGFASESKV
Description: as §1, §2

T1 sequence (Q8K4Z4 whole entry): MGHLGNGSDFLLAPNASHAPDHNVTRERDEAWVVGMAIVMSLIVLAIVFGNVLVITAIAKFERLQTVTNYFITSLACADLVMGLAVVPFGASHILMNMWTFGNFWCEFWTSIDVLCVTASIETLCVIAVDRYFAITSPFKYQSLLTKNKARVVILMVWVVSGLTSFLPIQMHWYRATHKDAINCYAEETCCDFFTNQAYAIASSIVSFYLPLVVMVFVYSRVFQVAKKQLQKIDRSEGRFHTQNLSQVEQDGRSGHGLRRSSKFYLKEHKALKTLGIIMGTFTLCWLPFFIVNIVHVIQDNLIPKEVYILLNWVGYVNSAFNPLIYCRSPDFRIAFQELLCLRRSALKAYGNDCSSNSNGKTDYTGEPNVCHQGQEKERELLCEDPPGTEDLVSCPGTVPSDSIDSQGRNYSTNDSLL

COC(=O)Nc1cc([C@H](O)CN[C@H](C)Cc2ccc(O)cc2)ccc1O [Example 1, Carbamic acid, [2-hydroxy-5-[(1S)-1-hydroxy-2-[[(1R)-2-(4-hydroxyphenyl)-1-methylethyl]amino]ethyl]-phenyl]-, methyl ester]
β1/β2 functional ratio (adrenergic β2 receptors; ratio of EC50 β1 to EC50 β2): > 484
EC50 (adrenergic β2 receptors; β2, isolated trachea, guinea pig): 62 nM
% of Initial Concentration (0.19847 mg/mL) in pH 5.0 ([1]; pH 3.0, 30° C., 0 wk): 98.31%
% of Initial Concentration (0.19847 mg/mL) in pH 5.0 ([1]; pH 3.0, 30° C., 1 wk): 99.95%
% of Initial Concentration (0.19847 mg/mL) in pH 5.0 ([1]; pH 3.0, 30° C., 2 wk): 99.12%
% of Initial Concentration (0.19847 mg/mL) in pH 5.0 ([1]; pH 3.0, 30° C., 4 wk): 100.91%
% of Initial Concentration (0.19847 mg/mL) in pH 5.0 ([1]; pH 3.0, 30° C., 8 wk): 101.16%
% of Initial Concentration (0.19847 mg/mL) in pH 5.0 ([1]; pH 3.0, 30° C., 12 wk): 101.54%
% of Initial Concentration (0.19847 mg/mL) in pH 5.0 ([1]; pH 3.0, 40° C., 0 wk): 98.31%
% of Initial Concentration (0.19847 mg/mL) in pH 5.0 ([1]; pH 3.0, 40° C., 1 wk): 98.87%
% of Initial Concentration (0.19847 mg/mL) in pH 5.0 ([1]; pH 3.0, 40° C., 2 wk): 100.33%
% of Initial Concentration (0.19847 mg/mL) in pH 5.0 ([1]; pH 3.0, 40° C., 4 wk): 105.71%
% of Initial Concentration (0.19847 mg/mL) in pH 5.0 ([1]; pH 3.0, 40° C., 8 wk): 106.72%
% of Initial Concentration (0.19847 mg/mL) in pH 5.0 ([1]; pH 3.0, 40° C., 12 wk): 106.51%
time for which found to be very stable ([1]; pH 3 or 5, stored at 30° C.): at least 12 weeks
% of Initial Concentration (0.19847 mg/mL) in pH 5.0 ([1]; pH 5.0, 30° C., 0 wk): 100.20%
% of Initial Concentration (0.19847 mg/mL) in pH 5.0 ([1]; pH 5.0, 30° C., 1 wk): 99.68%
% of Initial Concentration (0.19847 mg/mL) in pH 5.0 ([1]; pH 5.0, 30° C., 2 wk): 101.08%
% of Initial Concentration (0.19847 mg/mL) in pH 5.0 ([1]; pH 5.0, 30° C., 4 wk): 101.59%
% of Initial Concentration (0.19847 mg/mL) in pH 5.0 ([1]; pH 5.0, 30° C., 8 wk): 105.28%
% of Initial Concentration (0.19847 mg/mL) in pH 5.0 ([1]; pH 5.0, 30° C., 12 wk): 106.61%
% of Initial Concentration (0.19847 mg/mL) in pH 5.0 ([1]; pH 5.0, 40° C., 0 wk): 100.20%
% of Initial Concentration (0.19847 mg/mL) in pH 5.0 ([1]; pH 5.0, 40° C., 1 wk): 100.40%
% of Initial Concentration (0.19847 mg/mL) in pH 5.0 ([1]; pH 5.0, 40° C., 2 wk): 101.07%
% of Initial Concentration (0.19847 mg/mL) in pH 5.0 ([1]; pH 5.0, 40° C., 4 wk): 102.09%
% of Initial Concentration (0.19847 mg/mL) in pH 5.0 ([1]; pH 5.0, 40° C., 8 wk): 104.88%
% of Initial Concentration (0.19847 mg/mL) in pH 5.0 ([1]; pH 5.0, 40° C., 12 wk): 106.74%
% of Initial Concentration (0.19847 mg/mL) in pH 5.0 ([1]; ~pH 8, 30° C., 0 wk): 97.78%
% of Initial Concentration (0.19847 mg/mL) in pH 5.0 ([1]; ~pH 8, 30° C., 1 wk): 69.33%
% of Initial Concentration (0.19847 mg/mL) in pH 5.0 ([1]; ~pH 8, 30° C., 2 wk): 50.77%
% of Initial Concentration (0.19847 mg/mL) in pH 5.0 ([1]; ~pH 8, 30° C., 4 wk): 27.72%
% of Initial Concentration (0.19847 mg/mL) in pH 5.0 ([1]; ~pH 8, 30° C., 8 wk): 6.96%
% of Initial Concentration (0.19847 mg/mL) in pH 5.0 ([1]; ~pH 8, 30° C., 12 wk): 1.24%
% of Initial Concentration (0.19847 mg/mL) in pH 5.0 ([1]; ~pH 8, 40° C., 0 wk): 97.78%
% of Initial Concentration (0.19847 mg/mL) in pH 5.0 ([1]; ~pH 8, 40° C., 1 wk): 30.18%
% of Initial Concentration (0.19847 mg/mL) in pH 5.0 ([1]; ~pH 8, 40° C., 2 wk): 8.85%
% of Initial Concentration (0.19847 mg/mL) in pH 5.0 ([1]; ~pH 8, 40° C., 4 wk): 0.52%
% of Initial Concentration (0.19847 mg/mL) in pH 5.0 ([1]; ~pH 8, 40° C., 8 wk): 0%
% of Initial Concentration (0.19847 mg/mL) in pH 5.0 ([1]; ~pH 8, 40° C., 12 wk): 0%
Emax [2]: 79%
increase in heart rate (adrenergic β1 receptors): 20%
β1/β2 binding ratio ([3]; ratio of Ki β1 to Ki β2): > 10
Ki ([3]; β2 receptor, displacement of [3H]-CGP-12177, CHO cells): 990 nM
inhibition at 20 µM ([4]; at a concentration of 20 μM, read-out: inhibition of specific binding): 44%
Ki ([4]; displacement of [125I]-cyanopidolol, CHO cells): > 10000 nM
